Test results taken from patent US20160367497A1, “METHODS AND COMPOSITIONS FOR TREATING NEUROPATHIES” (Washington University, priority 2007, published 2016).

Key:
[1] = tested on: neuro2A cells; test: neurite outgrowth in Neuro2a cells; assay type: cell-based
Method: FIG. 11A-D illustrates the resveratrol and AICAR stimulation of neurite outgrowth in Neuro2a cells. Neuro2a cells were switched to serum-starvation medium (medium containing 0.2% FCS) and treated with DMSO (vehicle control), resveratrol (10 μM) or AICAR (1 mM). (A) Serum deprivation of Neuro2a cells results in growth of short neurites that increase in length over 72 h. (B) Resveratrol induced rapid neurite outgrowth resulting in elaborate neurite network formation by 48 h. (C) AICAR stimulated extensive neurite outgrowth similar to that observed with resveratrol. (D).
FIG. 12A-M illustrates the dependency of resveratrol-induced neurite outgrowth and mitochondrial biogenesis on AMPK. Neuro2a cells were infected with lentivirus expressing GFP only (FUGW, control), dominant negative AMPK (dnAMPK) or constitutively active AMPK (caAMPK). Three days later cells were shifted to serum-starvation medium containing DMSO (control) or resveratrol (10 μM). In addition, uninfected Neuro2a cells in serum-starvation medium were treated with resveratrol alone, the AMPK inhibitor Compound C (CC, Biomol International L.P. (Plymouth Meeting, Pa.)) (10 μM) alone or with resveratrol and CC together. Images of the cultures captured in bright field and green fluorescence were overlaid to visualize neurite outgrowth. […] Neurite length in cells treated with caAMPK+resveratrol is also shown (G). […] Values were normalized to the 18S transcript. Data shown is representative of two independent experiments.
Cell culture and Reagents. Neuro2 cells obtained from ATCC were grown in MEM with 1.5 g/L sodium bicarbonate, 0.1 mM nonessential amino acids, 0.1 mM sodium pyruvate, 2 mM L-glutamine with 10% FCS. For differentiation, cells were switched to serum-starvation medium (containing 0.2% FCS). For neurite outgrowth measurements, experiments were done in quadruplicate and 100 neurites per well were randomly measured using the Metamorph software. Dorsal root ganglia sensory and cortical neurons were established from E13.5 mouse embryos, maintained in neurobasal medium supplemented with B27 (and NGF for DRG neurons) and infected with lentiviruses as described (Araki et al., 2004, Science 305:1010-1013; Hawley et al., 2005, Cell Metab 2:21-23). Resveratrol was a gift from Sirtris Pharmaceuticals (Cambridge Mass.) and AICAR was obtained from Toronto Research (North York, Canada). Splitomycin and Compound C were purchased from Biomol (Plymouth Meeting, Pa.) and Calbiochem (San Diego, Calif.). Sirtinol and nicotinamide were purchased from Sigma (Saint Louis, Mo.)
Neuro2a cells are a widely used as in vitro model of neuronal differentiation. These cells cease to proliferate and begin to differentiate, as evidenced by neurite outgrowth, in response to serum starvation, retinoic acid, or growth factors like neurotrophins and GDNF family ligands. […] Neuro2a cells grown under serum starvation conditions (0.2% fetal calf serum) were treated with AICAR (1 mM) or resveratrol (10 μM).
Since resveratrol activated AMPK and altered the differentiation of Neuro2a cells, we next asked whether AMPK activity was required for resveratrol-induced neurite outgrowth. To address this issue, we infected Neuro2a cells with lentivirus expressing either GFP alone (FUGW-control) or dominant negative AMPK (dnAMPK). After 3 days growth to allow robust lentiviral transgene expression, the medium was replaced with serum starvation medium. […] Resveratrol-induced neurite outgrowth was reduced in the presence of the AMPK pharmacological inhibitor Compound C (CC 10 μM) further supporting the importance of AMPK activity for resveratrol-induced neurite outgrowth.

[2] = tested on: DRG neurons; test: axonal injury of DRG neurons after hypoxia and reoxygenation; assay type: cell-based; conditions: preincubation 45 min or lentiviral expression; 0.1% O2 8 or 16 hrs, 20 hrs reoxygenation
Method: FIG. 18 illustrates that activation of AMPK protects axons while inhibition of AMPK function enhances axonal injury during oxygen deprivation.
To examine whether AMPK activation prior to hypoxic stress protects axons from injury, either constitutively active AMPK (CaAMPK) was expressed in DRG neurons, or neurons were preincubated with the AMPK activator AICAR for 45 min prior to hypoxia. […] Thus, treatments that increase AMPK activity (e.g. resveratrol, AICAR) can block the axonal damage and are neuroprotective.

[3] = tested on: Tfam, PGC-1α and MFN2 mRNA; test: mitochondrial biogenesis markers, quantitative RT-PCR in Neuro2a cells; assay type: cell-based; conditions: with resveratrol 10 μM; Compound C 10 μM or dominant negative AMPK expression
Method: Three days later cells were shifted to serum-starvation medium containing DMSO (control) or resveratrol (10 μM). In addition, uninfected Neuro2a cells in serum-starvation medium were treated with resveratrol alone, the AMPK inhibitor Compound C (CC, Biomol International L.P. (Plymouth Meeting, Pa.)) (10 μM) alone or with resveratrol and CC together. […] Values were normalized to the 18S transcript. Data shown is representative of two independent experiments.
Protein and mRNA analysis. […] Quantitative RT-PCR analysis was performed using Sybr-Green methodology on a model 7700 instrument (Applied Biosystems) as previously described (Araki et al., 2004, Science 305:1010-1013).
We treated Neuro2a cells for 3d with either DMSO (control) or resveratrol (10 μM) in the presence or absence of the AMPK inhibitor Compound C (10 μM). We assessed mitochondrial biogenesis by monitoring mRNA levels of mitofusin 2 (MFN2), a mitochondrial protein and marker of mitochondrial mass and two key regulators of mitochondrial biogenesis, peroxisome proliferator activated receptor γ coactivator 1α (PGC1α) and mitochondrial transcription factor A (Tfam) (Kelly, et al., 2004, Genes Dev 18:357-368).

[4] = tested on: neuro2A cells; test: cellular ATP levels, luciferase-based assay in neuro2A cells; assay type: cell-based; conditions: 2 hr
Method: To explore the role of polyphenols, in particular, of resveratrol, we tested whether resveratrol altered the activity of AMPK in neuronal cells. Neuro2a neuroblastoma cells were treated with resveratrol (10 μM) and AMPK activation was examined using phospho-AMPK specific antibodies. […] To confirm that AMPK activation by resveratrol results in typical AMPK-mediated downstream responses, we monitored phosphorylation of ACC (acetyl Co-A carboxylase), a primary target of activated AMPK. […] To examine a potential mechanism of resveratrol-mediated AMPK activation, we measured cellular ATP levels as a decreased ATP:AMP ratio increases the phosphorylation of AMPK. ATP levels were monitored using a luciferase-based assay in neuro2A cells treated with resveratrol or Oligomycin, an inhibitor of mitochondrial oxidative phosphorylation and therefore ATP production. While the ATP concentration dropped from 5.874 μM in DMSO-treated cells (control) to 0.976 μM in Oligomycin treated cells within 2 hr, the ATP concentration in resveratrol-treated Neuro2a cells was not altered from control either at 2 hr (6.33 μM) or 24 hr (6.42 μM).

[5] = tested on: DRG neuronal explant cultures; test: in vitro Wallerian degeneration assay, DRG explant neurite transection; assay type: cell-based, mouse; conditions: for neurite protection after transection: 1 mM applied for 24 hours before neurite transection; for increase in intact neurites at 48 hours after transection: 1 mM exogenous application for 24 hours
Method: To identify the mechanism of delayed axonal degeneration mediated by the Wlds protein, we employed an in-vitro Wallerian degeneration model. Primary DRG explant neurons were infected with lentivirus expressing the appropriate proteins, and axons were injured by either removal of the neuronal cell body (transection) or growth in vincristine (toxic).
Mouse DRG explants from E12.5 embryos were cultured in the presence of 1 nM nerve growth factor. Non-neuronal cells were removed from the cultures by adding 5-fluorouracil to the culture medium. Transection of neurites was performed at 10-20 DIV using an 18-gauge needle to remove the neuronal cell bodies. Incubation with β-nicotinamide adenine dinucleotide (Sigma) or Sirtinol (Calbiochem) was performed using conditions indicated in the text or figures.
Quantitative analysis of axonal degeneration was performed as previously described (Zhai, et al., Neuron 39:217-25, 2003). Briefly, the cultures were examined using phase contrast microscopy at the indicated times. Axons with a fragmented, non-refractile appearance were designated as “degenerated.” At each time point, at least 200 singly distinguishable axons were blindly scored from several randomly taken images of each culture. Each condition was tested in triplicate explants in each experiment. Results were obtained from 2-4 independent experiments for each condition. Statistical analysis was performed by Student's T test. For calculations of neurite-covered area, digitally captured images from quadruplicate samples of two independent experiments were analyzed using analysis 3.1 software (Soft Imaging System, Lakewood, Colo.).
Cell culture, in vitro axotomy, and quantification of axonal degeneration. Mouse DRG explants from E12.5 embryos were cultured in the DMEM containing 10% FCS and 1 nM nerve growth factor. Non-neuronal cells were removed from the cultures by adding 5-fluorouracil to the culture media. Transection of neurites was performed at 14-21 DIV using an 18-gauge needle to remove the neuronal cell bodies. Lentiviral expression vectors were generated. Lentiviral infection was performed 3-7 days prior to axonal transection for 24 hr. Quantitative analysis of neurite degeneration was performed.

[6] = tested on: optic nerve (retinal ganglion cell axons); test: optic nerve transection after intravitreal injection, neurofilament Western blot; assay type: in vivo, rat; conditions: 24 hours before transection, 4 days after transection
Method: FIG. 9 illustrates optic nerve transection after intravitreal injection of NAD biosynthetic substrates NAD, NMN, NmR, or Nam was injected into intravitreal compartment of left rat eye and allowed to incorporate retinal ganglion cells for 24 hours after which, left optic nerve was transected by eye enucleation and right and left optic nerves were collected at 4 days after transection and analyzed by Western blotting in which optic nerves transected from […] without any treatment prior to axotomy were used for negative control; showing in the figure, the quantitative analysis data of percentage of remaining neurofilament immunoreactivity from transected optic nerve relative to non-transected±S.D.
Administration of NAD biosynthetic substrates and optic Nerve transection. Nam, NMN, NmR, or NAD was dissolved in PBS at the concentration of 100 mM or 1 M. Each of 5 μl solution was injected into left intravitreal component under the anesthesia at a rate of […]. The left optic nerve was transected at 24 hours after intravitreal injection and optic nerve was recovered at indicated time. Optic nerve tissue was homogenized in 100 μl of a buffer containing 100 mM tris-HCl (pH 6.8), 1% SDS, and 1 mM DTT. Fifty μg of protein for each sample was analyzed by the Western blotting using anti-neurofilament antibody 2H3 (Developmental Studies Hybridoma Center) and peroxidase-conjugated secondary antibody (Jackson ImmunoResearch). The degeneration rate was calculated from the ratio of the neurofilament immunoreactivity of transected vs. contralateral nerves.
Transection of optic nerve is an in vivo model which can be used to investigate mechanisms leading to Wallerian degeneration and following retinal ganglion cell (RGC) death observed in human diseases such as glaucoma. In the C57BL/Wlds mouse strain, optic nerve degeneration during Wallerian degeneration after axotomy is dramatically slowed. In addition, intravitreal injection is used for screening of compounds that protect RGC axon from degeneration in vivo and thus we can asses the axon protective effect of each NAD biosynthetic substrates in vive by intraocular injection of compounds including NAD, NMN, NmR, and Nam. From in vitro Wallerian degeneration assay, 1 mM of NAD, NMN, and NmR in the culture media is enough to protect axon from degeneration. We initially injected 5 μl of 100 mM or 1 M NAD solution into left intravitreal compartment. After 24 hours incubation, left optic nerve was transected and control (right) and axotomized (left) optic nerve were collected at 3, 4, and 5 days after transection. Neurofilament immunoreactivity from the axotomized optic nerve was measured and normalized against the value obtained from the right side of the optic nerve.

SMILES	neurite protection after transection [5]	increase in intact neurites at 48 hours after transection [5]	neurofilament immunoreactivity of axotomized optic nerve, of non-axotomized optic nerve ([6]; 5 μl of 100 mM intravitreal)	also measured
c1cc(-c2cnn3cc(-c4ccc(OCCN5CCCCC5)cc4)cnc23)ccn1 [Compound C]	–	–	–	effect on resveratrol-stimulated neurite outgrowth ([1]; resveratrol 10 μM, Compound C 10 μM, SIRT1 inhibitors, STO 609 2.5 μM or dnAMPK expression): reduced; neurite growth, inhibitor by itself ([1]; without resveratrol): did not cause any significant inhibition of neurite growth; axonal injury (axonal beading) after hypoxia [2]: severe axonal injury; effect on resveratrol-induced upregulation of mitochondrial markers [3]: severely diminished
CC[C@H]1/C=C/C=C/C[C@@H](C)[C@H](O)[C@@](C)(O)C(=O)[C@@H](C)[C@H](O)[C@@H](C)C(=O)[C@@H](C)[C@H](O)[C@@H](C)/C=C/C(=O)O[C@@H]2[C@H](C)[C@H](CC1)O[C@]1(CC[C@H](C)[C@H](C[C@@H](C)O)O1)[C@H]2C [Oligomycin, reference compound]	–	–	–	ATP concentration [4]: 0.976 µM
NC(=O)c1cccc(N)c1 [3AB, 3-aminobenzamide, reference compound]	–	–	–	effect on NAD-dependent axonal protection (NDAP) ([5]; neurons cultured in 1 mM NAD, Sirtinol 100 μM, 3AB 20 mM or siRNA lentivirus, 12 to 72 hr after transection): had no effect on NDAP
NC(=O)c1ccc[n+]([C@@H]2O[C@H](COP(=O)([O-])O)[C@@H](O)[C@H]2O)c1 [NMN, nicotinamide mononucleotide]	successfully saved neurites from degeneration	comparable increase in intact neurites	60±25%	–
NC(=O)c1ccc[n+]([C@@H]2O[C@H](COP(=O)([O-])OP(=O)(O)OC[C@H]3O[C@@H](n4cnc5c(N)ncnc54)[C@H](O)[C@@H]3O)[C@@H](O)[C@H]2O)c1 [NAD, nicotinamide adenine dinucleotide]	–	–	78±22%	neurofilament immunoreactivity of axotomized optic nerve, of non-axotomized optic nerve ([6]; 5 μl of 1 M intravitreal): 77±27%
O=C(O)c1cccnc1 [Na, nicotinic acid]	failed to save neurites	–	–	–
NC(=O)c1ccc[n+]([C@@H]2O[C@H](CO)[C@@H](O)[C@H]2O)c1 [NmR, nicotinamide riboside]	saved neurites as well as NAD	comparable increase in intact neurites	72±19%	–
O=C(O)c1ccc[n+]([C@@H]2O[C@H](COP(=O)(O)O)[C@@H](O)[C@H]2O)c1 [NaMN, nicotinate mononucleotide]	saved neurites as well as NAD	comparable increase in intact neurites	–	–
Nc1ncnc2c1ncn2[C@@H]1O[C@H](COP(=O)(O)OP(=O)(O)OC[C@H]2O[C@@H]([n+]3cccc(C(=O)O)c3)[C@H](O)[C@@H]2O)[C@@H](O)[C@H]1O [NaAD, nicotininc acid adenine dinucleotide]	slight protection	less increase in intact neurites at 48 hours compared with NAD	–	–
